Where two headings read alike, the source gives them in different places.
Assays:
Type in all cases: cell-based, Staphylococcus aureus
Clinical Isolates = experiment: High throughput screening assay (MABA) against MDR S. aureus; settings: for activity in MABA (in words): summary of Table 1
Procedure: (§1) In growth medium (Muller Hinton broth), the pure isolated colonies were inoculated and incubated at 37° C. for 20-24 hours. After 20-24 hours, the turbidity was checked and adjusted to 0.5 McFarland standards.
(§2) For this assay, the stock solutions of 1 mg/mL concentration of compounds (I and II) were made by using DMSO. 96-Wells sterile, flat bottom micro titer plates were used with proper labeling, 20 μg/mL of both compounds were added in first wells and made two fold serial dilutions by using sterile broth. The cells suspensions (conc. 5×10^5) were then added in each wells, finally the volume was made up with broth up to 200 μL in each well. The plate was sealed and incubated at 37° C. for 20-24 hours. Experiments were carried out in triplicate manner. After incubation of 20-24 hours, Alamar Blue Dye was added (10%) to the culture volume and kept the plates on shaking incubator at 37° C. for 3 to 4 hours. Change in color was then assessed visually and qualitatively. Quantitative analysis was recorded by taking absorbance at 570 and 600 nm by a spectrophotometer.
(§3) The above mentioned protocol was followed by the method reported by Sarkar et al., (2007) with slight modifications.
(§4) Percentage reduction and inhibition of Alamar blue dye was calculated by using the following formulas:
(§5) [formula] Where, • εox=molar extinction coefficient of Alamar blue oxidized form (blue) • εred=molar extinction coefficient of Alamar blue reduced form (pink) • A=absorbance of test wells • A′=absorbance of negative control well • λ1=570 nm • λ2=600 nm
(§6) Here control wells contain only media plus Alamar Blue, while the test wells contain both Alamar Blue with the test compounds.
(§7) [formula] Where, • εox=molar extinction coefficient of Alamar blue oxidized form (blue) • A=absorbance of test wells • A°=absorbance of positive growth control well • λ1=570 nm • λ2=600 nm
(§8) Here control wells contain cells+media+Alamar Blue, while the test wells contain both Alamar Blue with the test compounds+cells (The percent inhibitions are available in Table 1).

EMRSA-16 [1] = experiment: as above; settings: for activity in MABA (in words): summary of Table 1
Procedure: as §1, §2, §3, §4, §5, §6, §7, §8

EMRSA-17 [2] = experiment: as above; settings: for activity in MABA (in words): summary of Table 1
Procedure: as §1, §2, §3, §4, §5, §6, §7, §8

MRSA 252 = experiment: as above; settings: for activity in MABA (in words): summary of Table 1
Procedure: as §1, §2, §3, §4, §5, §6, §7, §8

EMRSA-16 [3] = experiment: Reversal of multi-drug resistance (MIC / FIC, Alamar blue); settings: for MIC of antibiotic in combination: antibiotic in combination of compounds I and II
Procedure: (§9) Fixed concentration of compounds I and II and increasing concentration of antibiotics (drugs) were made in 96-well plates. 5×10^5 multidrug resistant S. aureus cells were added in each well and incubated for 20-24 hours. No test compounds and antibiotics were present in control wells Inhibition and growth were noted both visually and by using the dye Alamar blue. FIC of Antibiotic a (FICa)=MIC of Antibiotic a in combination/MIC of Antibiotic a alone FIC of Compound b (FICb)=MIC of Compound b in combination/MIC of Compound b alone
(§10) The sum of Fractional Inhibitory Concentration (FICs) index of (FICa)+(FICb)=(FICs). Fractional inhibitory concentrations were calculated by the above cited formula. (The FIC values of compounds I and II are available (FIGS. 4A and 4B). Protocol of Chung et al. (2011), with slight modifications, was followed for above discussed reversal resistance assay.

EMRSA-17 [4] = experiment: as above
Procedure: as §9, §10

EMRSA-16 and -17 [5] = experiment: Membrane potential and integrity, DiBAC4(3) flow cytometry; settings: 20 μg/mL, 20-24 h; DiBAC4(3) fluorescence FL1
Procedure: 20 μg/mL of compounds I and II were tested against 5×10^5 multidrug resistant S. aureus cells and incubated for 20-24 hours, while cells without compounds were taken as a control. Stock solution (1 mg/mL) for the membrane potential probe DiBAC4(3) was made in absolute ethanol and stored at −20° C. 1 mL of exponentially growing S. aureus were taken from broth cultures and centrifuged at 11,000 rpm for 2 mins Supernatant was discarded and cells pallets were dissolved in 4 mL of filtered phosphate-buffered saline (PBS). Final 10 μg/mL conc. of fluorogenic substrates DiBAC4 were adjusted in 4 mL volume. The stained cell suspension was incubated at 37° C. for 30 min. Before flow cytometric analysis, cells were washed in PBS buffer by centrifugation. The above mentioned protocol was adapted from the procedures of Jepras et al. (1997) with slight modifications. Assays were performed by using Becton Dickinson FACSCaliber™ flow cytometer (USA). A total of 50,000 cells were counted by using Cell Quest software (BD) for data acquisition and analysis. DiBAC4(3) was detected as green fluorescence in the channel FL1 (Veal et al., 2000).

EMRSA-16 and -17 [6] = experiment: Inhibition of MDR efflux pumps, EtBr accumulation flow cytometry; settings: combinations with antibiotics, 3 hrs; FL-2 channel
Procedure: Assay Protocol: Different combinations of compounds I and II with antibiotics, and antibiotic alone, were made and incubated with bacterial cells for 3 hrs. After incubation cells were stained with ethidium bromide. Both the control and treated cells were centrifuged for 3 mins at 13,000 rpm. The pallet was washed with PBS. Negative control was free from ethidium bromide (EtBr), while positive control contains (EtBr). By using FL2 channel, FACS analyses were carried out. Protocol of Kalle et al. (2009) was employed with some modifications.
Flow cytometry data acquisition: For data acquisition and analysis Cell Quest software (BD) were used. A total number of 50,000 cells were counted. EtBr fluorescence was detected through (FL-2 channel).

EMRSA-16 and -17 [7] = experiment: Reactive oxygen species (O2-) production, lucigenin CL assay; settings: 25, 50 and 100 μg/mL; lucigenin chemiluminescence
Procedure: Assay Protocol: 5×10^5 Cells were incubated with the different concentrations of compounds (25, 50 and 100. μg/mL), leucigenin and filtered phosphate buffer saline. For the triggering of reaction, DMSO was added to the each well at the time of RLU determination. No test compounds were added in positive control but it contained DMSO, while no test compound and DMSO were added in negative control. Chemiluminescence (CL) was determined at room temperature by luminometer. The light emission results were measured in relative light unit (RLU). Protocol of above discussed protocol was followed by the method of Albesa et al (2002) with slight modifications.

[8] = Staphylococcus aureus, 20 μg/mL, Alamar blue, 20-24 h
[9] = Staphylococcus aureus, EMRSA-17, substance alone, read-out: MIC

COc1cccc(NC(=S)Nc2cccc(Cl)c2)c1 [II, N-(3-Chlorophenyl)-N-(3methoxyphenyl) thiourea]
inhibition at 20 µg/mL (Clinical Isolates; [8]): 19.6%
activity in MABA (in words) (EMRSA-16 [1]; 20 μg/mL): active
inhibition at 20 µg/mL (EMRSA-16 [1]; [8]): 50.1%
activity in MABA (in words) (EMRSA-17 [2]; 20 μg/mL): active
inhibition at 20 µg/mL (EMRSA-17 [2]; [8]): 82.6%
inhibition at 20 µg/mL (MRSA 252; [8]): 14.8%
MIC (EMRSA-16 [3]; Staphylococcus aureus, substance alone): 52 µg/mL
MIC (EMRSA-17 [4]; [9]): 25 µg/mL
effect on membrane potential and integrity (EMRSA-16 and -17 [5]): depolarization and the disruption of cytoplasmic membrane
inhibition of efflux pump (EtBr accumulation) (EMRSA-16 and -17 [6]): excellent capacity to inhibit the bacterial efflux pump mechanism
production of reactive oxygen species (O2-) (EMRSA-16 and -17 [7]): generation of O2^− in MDR cells were detected

NC(N)=O [Urea, Carbamide, carbonyl diamide, carbonyldiamine, Diaminomethanal]
% Inhibition 20 μg/mL Clinical Isolates (Clinical Isolates; 20 μg/mL, Alamar blue, 20-24 h): No Inhibition
activity in MABA (in words) (Clinical Isolates): resistant
activity in MABA (in words) (EMRSA-16 [1]; 20 μg/mL): resistant
% Inhibition 20 μg/mL EMRSA-16 (EMRSA-16 [1]; Alamar blue, 20-24 h): No Inhibition
activity in MABA (in words) (EMRSA-17 [2]; 20 μg/mL): resistant
% Inhibition 20 μg/mL EMRSA-17 (EMRSA-17 [2]; Alamar blue, 20-24 h): No Inhibition
% Inhibition 20 μg/mL MRSA 252 (MRSA 252; 20 μg/mL, Alamar blue, 20-24 h): No Inhibition
activity in MABA (in words) (MRSA 252): resistant

NCC[C@H](O)C(=O)N[C@@H]1C[C@H](N)[C@@H](O[C@H]2O[C@H](CN)[C@@H](O)[C@H](O)[C@H]2O)[C@H](O)[C@H]1O[C@H]1O[C@H](CO)[C@@H](O)[C@H](N)[C@H]1O [amikacin]
MIC of antibiotic in combination (EMRSA-16 [3]): 4 µg/mL
MIC (EMRSA-17 [4]; Staphylococcus aureus): 256 µg/mL

O=C(N[C@H](CO)[C@H](O)c1ccc([N+](=O)[O-])cc1)C(Cl)Cl [chloramphenicol]
MIC of antibiotic in combination (EMRSA-16 [3]): 16 µg/mL

O=C(O)c1cn(C2CC2)c2cc(N3CCNCC3)c(F)cc2c1=O [ciprofloxacin]
MIC of antibiotic in combination (EMRSA-16 [3]): 4 µg/mL

CCC[C@@H]1C[C@@H](C(=O)N[C@@H]([C@H]2O[C@H](SC)[C@H](O)[C@@H](O)[C@H]2O)[C@H](C)Cl)N(C)C1 [clindamycin]
MIC of antibiotic in combination (EMRSA-16 [3]): 32 µg/mL
MIC (EMRSA-17 [4]; [9]): 4100 µg/mL

Cc1onc(-c2ccccc2)c1C(=O)N[C@@H]1C(=O)N2[C@@H]1SC(C)(C)[C@@H]2C(=O)O [oxacillin]
MIC of antibiotic in combination (EMRSA-16 [3]): 16 µg/mL
MIC (EMRSA-17 [4]; [9]): 2050 µg/mL

Cc1cc(NS(=O)(=O)c2ccc(N)cc2)no1 [sulfamethoxazole]
interaction of antibiotic with compounds (FIC) (EMRSA-17 [4]; EMRSA-17, with both compounds I and II): indifference effect
MIC (EMRSA-17 [4]; [9]): 2080 µg/mL

Thiocarbamide [Thiourea]
% Inhibition 20 μg/mL Clinical Isolates (Clinical Isolates; 20 μg/mL, Alamar blue, 20-24 h): No Inhibition
activity in MABA (in words) (Clinical Isolates): resistant
activity in MABA (in words) (EMRSA-16 [1]; 20 μg/mL): resistant
% Inhibition 20 μg/mL EMRSA-16 (EMRSA-16 [1]; Alamar blue, 20-24 h): No Inhibition
activity in MABA (in words) (EMRSA-17 [2]; 20 μg/mL): resistant
% Inhibition 20 μg/mL EMRSA-17 (EMRSA-17 [2]; Alamar blue, 20-24 h): No Inhibition
% Inhibition 20 μg/mL MRSA 252 (MRSA 252; 20 μg/mL, Alamar blue, 20-24 h): No Inhibition
activity in MABA (in words) (MRSA 252): resistant

gentamicin
MIC of antibiotic in combination (EMRSA-16 [3]): 8 µg/mL
MIC (EMRSA-17 [4]; EMRSA-17, substance alone): 1024 µg/mL

neomycin
MIC of antibiotic in combination (EMRSA-16 [3]): 8 µg/mL
MIC (EMRSA-17 [4]; EMRSA-17, substance alone): 512 µg/mL

penicillin
MIC of antibiotic in combination (EMRSA-16 [3]): 8 µg/mL
MIC (EMRSA-17 [4]; EMRSA-17, substance alone): 1024 µg/mL

From patent publication US9387186B2, “Thiourea derivatives” (priority 2014, dated 2016)
